According to patent US20060030611A1, “Enoximone sulfoxide enantiomers and their use in the treatment of PDE-III mediated diseases” (Myogen, Inc., priority 2004, published 2006):
Like-named read-outs stand apart in the source and are kept apart here. Values belong to the molecule of their own block, whether it stands above or below them.

Key:
[1] = system: trabeculae from the right ventricular free wall of explanted human hearts; assay: Peak contractile force of isolated human right ventricular trabeculae in muscle bath; format: cell-based; conditions: 37° C., 1.0 Hz field stimulation, increasing concentrations
Description: Explanted human hearts were obtained from transplant recipients (n=7) and from nonfailing donor hearts (n=1). After excision, hearts were placed immediately into ice cold Tyrode's solution and aerated with 95% O2 and 5% CO2. Trabeculae between 1-3 mm in width and 7-10 mm in length were excised from the right ventricular free wall. Subsequently trabeculae were mounted in a multi-chamber muscle bath in oxygenated Tyrode's solution at 37° C. The trabeculae were placed under 1 gram of resting tension and a field stimulation of 1.0 Hz. […] Peak contractile forces were recorded at 10 minute intervals for a total of 1½ hours. Following experimentation, trabeculae were frozen in liquid N2.

[2] = biological target: T1, PDE-III isolated from human platelets (Homo sapiens, UniProt Q14432); assay: PDE-III inhibition, [3H]cAMP substrate; format: biochemical; conditions: triplicate at three concentrations over log scale, semi-quantitative
T1 construct: PDE-III isolated from human platelets; from tissue; host or cells: human platelets
Description: Enoximone Sulfoxide enantiomer was tested for its ability to inhibit the action of PDE-III isolated from human platelets. The substrate was [^3H]cAMP+cAMP, which is converted by PDE-III to […] and then […] can be quantified. Assays were done in triplicate at three different concentrations over log scale, allowing semi-quantitative measurement of IC50.

[3] = cited from earlier work; for average steady-state plasma concentration: oral
men who suffer from ED = conditions: ED of psychogenic or organic etiology, clinical studies; cited from earlier work
PDE-III = conditions: cited from earlier work

T1 sequence (Q14432 whole entry): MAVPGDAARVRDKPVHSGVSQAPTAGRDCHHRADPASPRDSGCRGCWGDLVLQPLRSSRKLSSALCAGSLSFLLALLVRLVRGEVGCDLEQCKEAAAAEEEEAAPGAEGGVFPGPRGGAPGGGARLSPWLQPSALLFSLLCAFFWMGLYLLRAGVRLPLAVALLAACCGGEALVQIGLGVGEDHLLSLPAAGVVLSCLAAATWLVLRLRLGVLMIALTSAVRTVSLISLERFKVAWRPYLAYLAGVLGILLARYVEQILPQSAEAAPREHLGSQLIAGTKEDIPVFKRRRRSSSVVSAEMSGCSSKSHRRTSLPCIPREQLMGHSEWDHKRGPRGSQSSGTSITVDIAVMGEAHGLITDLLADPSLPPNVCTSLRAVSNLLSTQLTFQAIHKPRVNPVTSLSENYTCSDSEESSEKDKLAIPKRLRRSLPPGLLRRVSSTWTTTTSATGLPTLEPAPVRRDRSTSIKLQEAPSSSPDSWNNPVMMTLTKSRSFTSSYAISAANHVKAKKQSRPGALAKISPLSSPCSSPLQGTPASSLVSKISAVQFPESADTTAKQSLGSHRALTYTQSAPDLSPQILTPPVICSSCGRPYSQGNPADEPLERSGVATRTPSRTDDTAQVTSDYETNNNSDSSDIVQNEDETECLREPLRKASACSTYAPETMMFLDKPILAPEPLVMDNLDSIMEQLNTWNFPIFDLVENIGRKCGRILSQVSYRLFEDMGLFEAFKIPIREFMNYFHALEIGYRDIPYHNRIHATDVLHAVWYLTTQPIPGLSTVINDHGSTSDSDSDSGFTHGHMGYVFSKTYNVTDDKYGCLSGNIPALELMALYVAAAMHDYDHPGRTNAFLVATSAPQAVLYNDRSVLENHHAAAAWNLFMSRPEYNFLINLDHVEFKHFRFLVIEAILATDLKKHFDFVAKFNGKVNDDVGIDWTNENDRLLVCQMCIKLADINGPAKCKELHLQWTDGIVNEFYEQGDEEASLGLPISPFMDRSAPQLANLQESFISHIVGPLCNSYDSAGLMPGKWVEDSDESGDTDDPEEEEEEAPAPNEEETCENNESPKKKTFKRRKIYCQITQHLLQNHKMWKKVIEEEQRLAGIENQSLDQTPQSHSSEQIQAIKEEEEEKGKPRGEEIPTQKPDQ

IC50 [2]: 107 µM
Compound: Cc1[nH]c(=O)[nH]c1C(=O)c1ccc([S@@+](C)[O-])cc1 [(R)-(+)-enantiomer of enoximone sulfoxide, 1,3-Dihydro-4-methyl-5-[(4-methylsulfinyl)-benzoyl]-2H-imidazol-2-one hydrate]
peak contractile force (net, T=0 baseline subtracted) [1]: 550 mg of tension

Compound: CSc1ccc(C(=O)c2[nH]c(=O)[nH]c2C)cc1 [Enoximone, 1,3-Dihydro-4-methyl-5-[4-(methylthio)benzoyl]-2H-imidazol-2-one]
average steady-state plasma concentration ([3]; 50 mg every 8 hours): 115 ± 40 ng/mL | average steady-state plasma concentration ([3]; 100 mg every 8 hours): 190 ± 78 ng/mL | mean clearance ([3]; patients with cardiac failure): about 10 ml/min/kg | Bioavailability ([3]; single oral dose of 3 mg/kg): about 55%

Compound: CCCc1nn(C)c2c(=O)[nH]c(-c3cc(S(=O)(=O)N4CCN(C)CC4)ccc3OCC)nc12 [sildenafil, 5-[2-ethoxy-5-(4-methylpiperazin-1-ylsulphonyl)phenyl]-1-methyl-3-n-propyl-6,7-dihydro-1H-pyrazolo[4,3-d]pyrimidin-7-one]
men with improved sexual function (men who suffer from ED): about 70% | inhibition of PDE-III (PDE-III): negligible inhibition

Compound: Cc1[nH]c(=O)[nH]c1C(=O)c1ccc([S+](C)[O-])cc1.O (stereo not shown) [Sulfoxide Metabolite 27996, 1,3-Dihydro-4-methyl-5-[(4-methylsulfinyl)-benzoyl]-2H-imidazol-2-one hydrate]
peak contractile force (net, T=0 baseline subtracted) [1]: 175 mg of tension

Compound: CC(C)NCC(O)c1ccc(O)c(O)c1 (stereo not shown) [Isoproterenol]
peak contractile force (net, T=0 baseline subtracted) [1]: > 1000 mg of tension
